Source: article PMC3216861, “Improving L-arabinose utilization of pentose fermenting Saccharomyces cerevisiae cells by heterologous expression of L-arabinose transporting sugar transporters” (Biotechnology for Biofuels, 2011)

Legend:
ScHxt10 = target: T1, ScHxt10 (Saccharomyces cerevisiae, UniProt P43581); experiment: growth complementation of transporter-null L-arabinose-utilizing yeast; assay type: cell-based; conditions: 20 g/L L-arabinose plates, 30°C, 10 days, strain TSY01; growth read-out only
T1 construct: gene HXT10; HXT10 under shortened HXT7 promoter on 2-micron plasmid pTHHXT10, expressed in hexose-transporterless strain TSY01
T1 sequence (P43581 1-546): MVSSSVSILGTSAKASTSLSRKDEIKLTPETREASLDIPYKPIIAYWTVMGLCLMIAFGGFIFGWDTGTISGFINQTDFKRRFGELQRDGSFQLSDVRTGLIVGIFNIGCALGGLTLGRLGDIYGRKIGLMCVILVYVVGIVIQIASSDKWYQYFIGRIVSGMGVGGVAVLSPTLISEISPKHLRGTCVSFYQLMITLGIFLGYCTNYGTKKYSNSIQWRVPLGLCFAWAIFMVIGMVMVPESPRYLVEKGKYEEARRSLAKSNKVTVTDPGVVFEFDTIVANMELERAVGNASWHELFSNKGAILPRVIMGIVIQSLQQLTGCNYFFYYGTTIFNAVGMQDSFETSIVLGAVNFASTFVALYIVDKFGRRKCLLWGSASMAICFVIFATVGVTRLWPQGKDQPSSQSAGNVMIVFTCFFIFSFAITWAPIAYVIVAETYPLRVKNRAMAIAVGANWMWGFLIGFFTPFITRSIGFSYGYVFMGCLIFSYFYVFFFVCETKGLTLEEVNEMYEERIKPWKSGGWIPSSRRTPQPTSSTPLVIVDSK

ScHxt9 = target: T2, ScHxt9 (Saccharomyces cerevisiae, UniProt P40885); experiment: as above; assay type: cell-based; conditions: 20 g/L L-arabinose plates, 30°C, 10 days, strain TSY01; growth read-out only
T2 construct: gene HXT9; HXT9 under shortened HXT7 promoter on 2-micron plasmid pTHHXT9, expressed in hexose-transporterless strain TSY01
T2 sequence (P40885 1-567): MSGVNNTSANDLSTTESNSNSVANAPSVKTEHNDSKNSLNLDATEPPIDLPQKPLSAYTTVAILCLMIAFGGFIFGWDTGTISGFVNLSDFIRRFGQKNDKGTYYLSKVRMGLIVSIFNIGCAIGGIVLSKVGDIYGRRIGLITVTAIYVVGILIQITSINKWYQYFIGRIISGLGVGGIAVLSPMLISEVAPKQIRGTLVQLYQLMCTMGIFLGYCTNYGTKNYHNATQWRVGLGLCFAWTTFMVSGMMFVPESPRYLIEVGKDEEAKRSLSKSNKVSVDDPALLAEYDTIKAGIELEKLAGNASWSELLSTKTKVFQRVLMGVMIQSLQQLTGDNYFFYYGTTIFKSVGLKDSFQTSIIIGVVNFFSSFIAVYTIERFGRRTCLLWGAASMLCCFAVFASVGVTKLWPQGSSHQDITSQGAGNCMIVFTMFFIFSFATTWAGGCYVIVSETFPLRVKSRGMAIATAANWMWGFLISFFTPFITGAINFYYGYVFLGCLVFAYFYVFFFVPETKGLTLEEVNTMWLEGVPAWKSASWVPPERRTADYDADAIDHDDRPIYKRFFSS

OC1OC[C@H](O)[C@H](O)[C@H]1O (stereo partly drawn) [L-arabinose]
growth complementation of transporter-null L-arabinose-utilizing yeast (ScHxt10): Transformants expressing ScGal2, ScHxt9 and ScHxt10 could grow on the L-arabinose medium | growth complementation of transporter-null L-arabinose-utilizing yeast (ScHxt9): Transformants expressing ScGal2, ScHxt9 and ScHxt10 could grow on the L-arabinose medium
